# Several values for one entry are separate records, joined by “and”; a condition that tells them apart may be missing. Identical values can stand only once.
# What was measured:
# [1] = tested on: Bibionidae; conditions: chronic/long-term; duration: 28 days
# [2] = tested on: Anas platyrhynchos
# [3] = tested on: Plant; conditions: not reported
# [4] = tested on: Hyalella azteca; conditions: acute; duration: 48 hours; mortality
# [5] = tested on: Apis mellifera; conditions: acute, mortality
# [6] = tested on: Pimephales promelas; conditions: chronic/long-term; duration: 300 days
# [7] = tested on: Colinus virginianus; conditions: acute; oral; diet
# [8] = tested on: Leuciscus idus; conditions: acute; duration: 96 hours; mortality
# [9] = tested on: Rattus norvegicus; conditions: reproduction developmental; body weight
# [10] = tested on: Neomysis kadiakensis; conditions: chronic/long-term; duration: 28 days
# [11] = tested on: Mus musculus; conditions: acute; oral
# [12] = tested on: Canidae; conditions: chronic; duration: 1 years; oral; Dog Other; clinical signs
# [13] = tested on: Tagia sp.
# [14] = tested on: Folsomia candida; conditions: chronic/long-term
# [15] = tested on: Typhlodromus pyri; assay: LR50; higher = less toxic; conditions: not reported; mortality
# [16] = tested on: Aphidius rhopalosiphi; assay: LR50; higher = less toxic; conditions: not reported; mortality
compound,measurement,setting,value
CC1(C)[C@H](/C=C(\Cl)C(F)(F)F)[C@@H]1C(=O)O[C@@H](C#N)c1cccc(Oc2ccccc2)c1 [lambda-Cyhalothrin],NOEC,[1],0.13 µg/L
same,LD50,"[2]; acute, oral, unspecified",3950 mg/kg-day
same,NOEC,[2]; reproductive,3.3 mg/kg-day
same,NOEC,[3],7.5 g/ha
same,LC50,[4],0.0019 ng/mL
same,LD50,[5]; dermal,0.038 µg/piece
same,LD50,"[5]; oral, unspecified",0.91 µg/piece
same,NOEC,[6],0.031 µg/L
same,LD50,[7],> 530 mg/kg-day
same,LC50,[8],0.078 ng/mL
same,NOAEL,[9],0.5 mg/kg-day and 0.25 mg/kg-day
same,NOEC,[10],0.00022 µg/L
same,LD50,[11],20 mg/kg-day
same,NOAEL,[12],0.5 mg/kg-day
same,LC50,"[13]; acute, mortality",> 500 mg/kg
same,NOEC,[13]; chronic/long-term,3.12 mg/kg
same,NOEC,[14],2.73 mg/kg
same,LR50,[15],0.0037 g/ha
same,LR50,[16],1.06 g/ha
